# Laboratory results: paper PMC2837466 (Journal of chromatography. B, Analytical technologies in …, 2010)
# Target: human serum albumin (HSA) (Homo sapiens, UniProt P02768)
# Assay: high-performance affinity chromatography, frontal analysis
# Format: binding
# Chain of human serum albumin (HSA) (P02768 25-609): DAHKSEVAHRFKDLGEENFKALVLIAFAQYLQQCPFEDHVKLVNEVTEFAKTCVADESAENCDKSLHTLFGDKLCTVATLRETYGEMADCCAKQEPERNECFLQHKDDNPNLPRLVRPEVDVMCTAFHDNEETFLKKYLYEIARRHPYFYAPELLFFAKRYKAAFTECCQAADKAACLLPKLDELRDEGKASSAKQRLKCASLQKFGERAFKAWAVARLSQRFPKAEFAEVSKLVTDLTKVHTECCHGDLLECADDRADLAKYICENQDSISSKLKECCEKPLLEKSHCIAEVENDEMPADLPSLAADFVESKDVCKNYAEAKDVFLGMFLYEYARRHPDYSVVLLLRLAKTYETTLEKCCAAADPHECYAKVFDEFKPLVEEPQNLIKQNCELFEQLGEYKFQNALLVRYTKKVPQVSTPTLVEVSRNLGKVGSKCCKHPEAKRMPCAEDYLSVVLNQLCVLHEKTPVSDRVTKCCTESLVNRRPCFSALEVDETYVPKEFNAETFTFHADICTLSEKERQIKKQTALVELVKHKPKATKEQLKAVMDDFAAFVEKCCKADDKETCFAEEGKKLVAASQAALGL
compound,measurement,value
CCN(CC)CC(=O)Nc1c(C)cccc1C [lidocaine],Kd,21.3 µM
